Values after ≈ are worked out from the molar mass of the structure shown. Like-named read-outs stand apart in the source and are kept apart here.
Columns and labels:
MDA-MB-231 = assay: CellTiter-Glo 72 h cytotoxicity assay, MDA-MB-231; assay type: cell-based; conditions: Homo sapiens, CTG assay, read-out: MDA-MB231 (EC50)
Method: (§1) The following stable human cell lines were utilized for this study: SUM149 and MDA-MB-231 (breast cancer models) and BJ (human normal fibroblast, foreskin). Cells were purchased from BioIVT or the American Type Culture Collection (ATCC). Cells were cultured in F-12-Nutrient Mixture (SUM149), DMEM (MDA-MB-231), or EMEM (BJ) medium supplemented with 10% fetal bovine serum (Sigma-Aldrich, St. Louis, MO) and 2 mmol of L-glutamine, at 37 °C in a humidified 5% CO2 atmosphere (no antibiotics) as indicated by the manufacturer. Cell cultures were grown to 80–90% confluence before use, except where otherwise specified. Our cell lines are authenticated every 3 months using the CellCheck service (Idexx BioResearch, Westbrook, ME). Cells were tested for mycoplasma prior to use (MycoAlert detection Kit Lonza LT07–318) and discarded if they tested positive. A cell proliferation assay was performed using the CellTiter-Glo (Promega Corp., Madison, WI) luminescent cell viability assay kit. Cells were detached with trypsin, counted, and seeded in white polystyrene flat-bottom sterile 96-well tissue culture-treated plates (catalog no. 3917, Corning, Glendale, Arizona) and incubated overnight at 37 °C. MDA-MB231, SUM149, and BJ cells were seeded into 96-well plates at concentrations experimentally determined (0.4 × 10^4, 0.25 × 10^4, and 0.3 × 10^4 cells per well, respectively) to ensure logarithmic growth during the duration of the experiment and to prevent adverse effects on cell growth by DMSO exposure. The plates were incubated for 12 h before treatment. Stock solutions of test compounds (10 mM in DMSO) in nine 3-fold serial dilutions were dispensed. The final concentration of DMSO was 0.3% (v/v) in each well. The positive control used was staurosporine (10 μM) as the kill-all control, and the negative control used is DMSO as we have published. Staurosporine is a potent alkaloid inducer of various cell death modalities but primarily apoptosis, making it a reliable positive control for viability assays. The plates were incubated for 72 h and then quenched with CTG at 50 μL per well at RT. Plates were then incubated at RT for 20 min and centrifuged at 1000 rpm for 1 min. Luminescence was read on a CLARIOstar Plus plate reader (BMG LabTech, Ortenberg, Germany).
(§2) Three or four technical replicates were conducted for each experimental condition, and a minimum of three independent experiments were conducted for each assay. In vitro ADME values were expressed as mean ± standard deviation (SD) of at least three independent experiments. One-way analysis of variance (ANOVA) was adopted for comparisons among groups using the GraphPad Prism 10.2.3 (GraphPad Software, San Diego, CA). A difference of P < 0.05 was considered as statistically significant. Data are expressed as mean ± SEM. For CTG, the mean luminescence of each experimental treatment group was normalized as a percentage of the mean intensity of untreated controls (DMSO as vehicle). EC50 values were calculated from dose–response curve fitting via nonlinear regression using GraphPad Prism 10.2.3 (GraphPad Software, San Diego, CA). A therapeutic index (TI) between normal and tumor cell lines can be determined (EC50 non-neoplastic cell line BJ)/(EC50 cancer cell line). In vivo studies were analyzed using mixed-effects regression models to compare the changes in tumor volume over time by treatment group. Tumor volume reduction was compared using ANOVA with repeated measures, and all data was considered significant when P < 0.05.

[1] = Aqueous solubility by UV/vis absorbance; assay type: physicochemical; conditions: kinetic from dmso stock
Text: (§3) First, topological polar surface area (tPSA), a widely used molecular descriptor that provides insight into compound absorption and membrane penetration, was theoretically calculated for these compounds along with the estimated c log P (partition coefficient) or log P to further assess their global therapeutic potential.[18],[19] Lipophilicity, a measurable and predictable physical property, can provide practical guidance in designing compounds with improved molecular properties.[20] The tPSA sums the contribution of the surface area of polar atoms, enabling us to determine whether the compounds are more likely to be cell membrane permeable. The aqueous solubility was measured by ultraviolet/visible (UV/vis) spectroscopy.[21] […] EP shares an improved cLogP, but still relatively high from a desirable drug candidate (2.5–3.5). […] Compound 4 has a higher c log P, while compounds 5–10 have lower c log P values. To determine LiPE (lipophilicity efficiency), the following formula was used: LiPE = pIC50 – log P, according to established methods.[22],[23] […] The obtained EC50 values for the newly generated EP derivatives were within a similar range for other derivatives previously described against TNBC models.[17]
Briefly, clear 96-well PS plates with lids (catalog no. 3903, Corning, Glendale, Arizona) were used for spectrophotometric determination of absorbance with a CLARIOstar Plus plate reader (BMG LabTech, Ortenberg, Germany) to determine at which concentration the compounds are precipitating out of solution. Decrease in transmittance of 2% or higher was considered significant. Compound solutions of 10 mM in DMSO were prepared followed by a serial dilution series, which were vortexed to ensure the solutions were homogeneous. The 96-well plate was then prepared with distilled H2O and allowed to equilibrate for 1.5 h. Then, the plate was placed in a CLARIOstar Plus plate reader or Cytation C10 (Biotek, Agilent) and set to detect absorbance at 220–700 nm. Each well was read individually. Three replicate assays were conducted for each experimental condition, and a minimum of three independent experiments were conducted.

SUM149 = assay: CellTiter-Glo 72 h cytotoxicity assay, SUM149; assay type: cell-based; conditions: Homo sapiens; for EC50: SUM149, CTG assay, 72 h; for IC50: calculated from SUM149 EC50
Text: as §3, §1
Three or four technical replicates were conducted for each experimental condition, and a minimum of three independent experiments were conducted for each assay. In vitro ADME values were expressed as mean ± standard deviation (SD) of at least three independent experiments. One-way analysis of variance (ANOVA) was adopted for comparisons among groups using the GraphPad Prism 10.2.3 (GraphPad Software, San Diego, CA). A difference of P < 0.05 was considered as statistically significant. […]

BJ = assay: CellTiter-Glo 72 h cytotoxicity assay, BJ normal fibroblasts; assay type: cell-based; conditions: Homo sapiens, CTG assay, noncancerous fibroblasts
Method: as §1, §2

in vitro [2] = conditions: male, Balb/c, mouse, plasma
Method: (§5) Briefly, pooled blood from 3 animals for experiment (male Balb/c 6–8w from the division of laboratory animal medicine in-house breeding colony) was collected, and the heparinized plasma was prepared. Plasma and test compounds were added to individual wells of a 96-well microtiter plate. Compounds were incubated at 37 °C for the provided time points. All tests were performed in triplicates. The test compound was incubated with plasma at six different time points. The reaction was terminated by methanol containing an internal standard. After centrifugation, the concentration of the test compound in the supernatant was quantified by LC-MS/MS.
(§6) Plasma stability assay: Briefly, pooled blood from 3 animals for experiment (male Balb/c 6-8w
(§7) from the division of laboratory animal medicine in-house breeding colony) was collected, and
(§8) the heparinized plasma was prepared. Plasma and test compounds were added to the individual
(§9) wells of a 96-well microtiter plate. Compounds were incubated at 37°C for the provided time
(§10) points. All tests were performed in triplicates. Then, the test compound was incubated with
(§11) plasma at six different time points. The reaction was terminated by the addition of methanol
(§12) containing an internal standard. After centrifugation, the concentration of the test compound in
(§13) the supernatant was quantified by LC-MS/MS. The percentage of test compound remaining at
(§14) compounds are known to be metabolized by plasma esterases,1 and were also incubated with
each batch of test compound.
(§15) A standard protocol and MS method was used for the plasma stability experiment. The extraction
(§16) procedure for plasma/tissue samples and the spiked plasma/tissue calibration standards were
(§17) identical: A 25 µL of study sample or spiked plasma/tissue calibration standard was added to
(§18) individual pre-labeled micro-centrifuge tubes followed by 100 µL of internal standard prepared
(§19) in Acetonitrile (Albendazole, 500 ng/mL) was added except for blank, where 100 µL of
(§20) Acetonitrile was added. Samples were vortexed for 5 minutes. Samples were centrifuged for 5
(§21) minutes at a speed of 4000 rpm at 4°C. Following centrifugation, 100 µL of clear supernatant
(§22) was transferred in 96 well plates and analyzed using LC-MS/MS mode. The LC system
(§23) comprises of a binary pump that can mix two mobile phases: A = Water+0.1% formic acid; B =
(§24) acetonitrile +0.1%formic acid. The system was operated in gradient mode using a 6 minute
(§25) min, 10-90% A to B in 5.5-6 min, and then hold at this gradient, using a Phenomenex Luna, 150
(§26) X 4.6 mm, 5 µm column. Source Parameter: positive, Ion Spray Voltage 5500, Temperature
550C, interface heater on.

in vitro [3] = conditions: human, plasma
[4] = Metabolic stability in mouse liver microsomes; assay type: in vitro ADME
Method: (§27) Human and/or mouse microsomal degradation was determined using multiple time points to monitor the rate of disappearance of the parent compound during incubation following the method described by Di et al.[51],[52] […] The metabolic stability was evaluated via the half-life from the least-squares fit of the multiple time points based on first-order kinetics. Waters ACQUITY-TOQ UPLC-MS-MS-UV system was used to analyze the samples as established in various MS core facilities.[51],[52]

[5] = Plasma protein binding, rapid equilibrium dialysis (human); assay type: in vitro ADME
Method: (§4) This assay determines the plasma protein binding of a drug or compound and free drug concentration in plasma using rapid equilibrium dialysis. We use the Single-Use RED (rapid equilibrium dialysis, Thermo Scientific) devices to allow the aqueous component of plasma containing the free drug/compound through a dialysis membrane (MWCO ∼ 8000). Sample quantification is determined using a Waters ACQUITY-SOQ UPLC-MS-ELDS-UV system.

[6] = Plasma protein binding, rapid equilibrium dialysis (mouse); assay type: in vitro ADME
Method: as §4

[7] = Metabolic stability in human liver microsomes; assay type: in vitro ADME
Method: as §27

[8] = Caco-2 permeability assay; assay type: in vitro ADME; conditions: human
Method: It was performed in the 96-well Transwell system with a modified method.[36] Caco-2 cells were maintained at 37 °C in a humidified incubator with an atmosphere of 5% CO2. The cells were cultured in MEM containing 20% FBS in […], 100 units/mL penicillin, and 100 μg/mL of streptomycin. The Caco-2 cells were seeded onto inserts of a 96-well plate at a density of 0.5 × 10^5 cells/insert and cultured in the MEM containing 20% FBS for 7 days. Each cultured monolayer on the 96-well plate was washed twice with HBSS/HEPES (10 mM, pH 7.4). The permeability assay was initiated by the addition of each compound solution (10 μmol/L) into inserts (apical side, A) or receivers (basolateral side, B). The Caco-2 cell monolayers were incubated for 2 h at 37 °C. Fractions were collected from receivers (if apical to basal permeability) or inserts (if basal to apical permeability), and concentrations were assessed by UPLC/MS (Waters; Milford, MA). All compounds were tested in triplicates. The A → B (or B → A) apparent permeability coefficients ([…]) of each compound were calculated using the equation Pappa = dQ/dt × 1/AC0. The flux of a drug across the monolayer is dQ/dt (μmol/s). The initial drug concentration on the apical side is C0 (μmol/L). The surface area of the monolayer is A (cm^2).

[9] = Simulated gastric fluid (SGF) stability; assay type: in vitro ADME; conditions: simulated gi fluid; simulated gastric fluid; read-out: SGF stability t1/2 (converted)
Method: The simulated gastric fluid (SGF) assay is an important element in determining the overall drug-like potential of compounds.[29],[30] Anecdotal studies of oral consumption of extracts by humans indicate positive outcomes of digestion of mixtures of EP and its related natural products found in G. lucidum.[2] […] Chlorambucil was used as positive control as previously described.[32],[33] […] Caco-2 permeability studies were conducted to validate and to provide information on EP’s ability to cross the intestinal barrier and its potential for interactions with drug transporters.[36]−[39] The rate of transport in both directions (A-B and B-A) across the cell monolayer enables an efflux ratio (B-A/A-B) to be determined, enabling us to determine if a compound undergoes active efflux (efflux ratio ≥2).

[10] = Plasma stability assay (human)
[11] = Plasma stability assay (mouse); conditions: male, Balb/c, mouse, plasma
Method: as §5, §6, §7, §8, §9, §10, §11, §12, §13, §14
each batch of test compound.
as §15, §16, §17, §18, §19, §20, §21, §22, §23, §24, §25, §26
550C, interface heater on.

SMILES	EC50 (MDA-MB-231) [µM]	EC50 (SUM149) [µM]	IC50 (SUM149) [µM]	solubility at […] ([1]; water) [µg/mL]	EC50 (BJ) [µM]	other results
CC(C)[C@@H](C)/C=C/[C@@H](C)[C@H]1CC[C@H]2C3=CC=C4C[C@@H](O)CC[C@]4(C)[C@H]3CC[C@]12C [Compound 1, Ergosterol]	> 120	61	61.7	–	–	solubility at […] ([1]; distilled water, distilled H2O, UV/vis, read-out: solubility limit): 0.59 µg/mL (≈ 1.49 µM)
C=CC(=O)O[C@H]1CC[C@]2(C)[C@H]3CC[C@]4(C)[C@@H]([C@H](C)/C=C/[C@H](C)C(C)C)CC[C@H]4[C@@]34C=C[C@]2(C1)OO4 [Compound 4]	47.6	31	31.6	24.1 (≈ 50 µM)	92.5	–
CC(C)[C@@H](C)C1OC1[C@@H](C)[C@H]1CC[C@@H]2[C@]1(C)CC[C@H]1[C@]23C=C[C@]2(C[C@@H](O)CC[C@]12C)OO3 (stereo partly shown) [Compound 5]	15.7	2.74	2.75	5.56 (≈ 12.5 µM)	70.4	–
CC(C)[C@@H](C)C1OC1[C@@H](C)[C@H]1CC[C@@H]2[C@]1(C)CC[C@H]1[C@]23C=C[C@]2(C[C@@H](OS(=O)(=O)O)CC[C@]12C)OO3 (stereo partly shown) [Compound 5a]	7.37	2.24	2.29	26.2 (≈ 49.9 µM)	48	–
CC(C)[C@@H](C)/C=C/[C@@H](C)[C@H]1CC[C@@H]2[C@]1(C)CC[C@H]1[C@@]23OO[C@@]2(C[C@@H](O)CC[C@]12C)C(O)C3O (stereo partly shown) [Compound 6]	25.4	14.5	14.8	23.1 (≈ 50 µM)	135	–
CC(C)[C@@H](C)/C=C/[C@@H](C)[C@H]1CC[C@@H]2[C@]1(C)CC[C@H]1[C@]23C=C[C@]2(C[C@@H](OC(=O)NS(=O)(=O)c4ccccc4)CC[C@]12C)OO3 [Compound 7]	12	5.6	5.62	26.8 (≈ 43.7 µM)	47.1	half-life (in vitro [2]): > 48 h; half-life (in vitro [3]): > 48 h; metabolic stability (mouse) clint [4]: 63.82 mL/Min/K g; half-life ([4]; female, CD-1, pooled liver microsomes, read-out: metabolic stability (mouse) t1/2 (converted)): 0.9 h; fraction unbound [5]: 0.0062; fraction unbound [6]: 0.0017; metabolic stability (human) clint [7]: 24.91 mL/Min/K g; half-life ([7]; both sexes, pooled liver microsomes, read-out: metabolic stability (human) t1/2 (converted)): 0.83 h
CC(C)[C@@H](C)C(O)C(O)[C@@H](C)[C@H]1CC[C@@H]2[C@]1(C)CC[C@H]1[C@@]23OO[C@@]2(C[C@@H](O)CC[C@]12C)C(O)C3O (stereo partly shown) [Compound 8]	29.7	6.42	6.46	24.8 (≈ 50 µM)	172	–
CC(C)[C@@H](C)/C=C/[C@@H](C)[C@H]1CC[C@@H]2[C@]1(C)CC[C@H]1[C@]23C=C[C@]2(C[C@@H](OS(=O)(=O)O)CC[C@]12C)OO3 [Compound 9]	3.47	2.7	2.75	15.5 (≈ 30.5 µM)	50	–
CC(C)[C@@H](C)/C=C/[C@@H](C)[C@H]1CC[C@@H]2[C@]1(C)CC[C@H]1[C@@]23OO[C@@]2(C[C@@H](OS(=O)(=O)O)CC[C@]12C)C(OS(=O)(=O)O)C3OS(=O)(=O)O (stereo partly shown) [Compound 10]	10.7	3.11	3.09	17.8 (≈ 25.4 µM)	77.9	–
NC(=O)N1c2ccccc2C=Cc2ccccc21 [carbamazepine, reference compound]	–	–	–	–	–	efflux ratio at 2 h, 10 µmol/L ([8]; Caco-2, pH 7.4, Caco-2, read-out: efflux ratio (B2A/A2B)): 0.74; Papp A→B at 2 h, 10 µmol/L ([8]; Caco-2, pH 7.4, apical to basolateral): 37.6 ×10⁻⁶ cm/s; Papp B→A at 2 h, 10 µmol/L ([8]; Caco-2, pH 7.4, basolateral to apical): 27.7 ×10⁻⁶ cm/s
O=C(O)CCCc1ccc(N(CCCl)CCCl)cc1 [chlorambucil, reference compound]	–	–	–	–	–	half-life [9]: 18.4 h
CC1CC(OC(=O)C(O)c2ccccc2)CC(C)(C)N1C (stereo not shown) [eucatropine, reference compound]	–	–	–	–	–	half-life [10]: 0.41 h; half-life [11]: 1.87 h

Source: article PMC11375702, “Early Preclinical Studies of Ergosterol Peroxide and Biological Evaluation of Its Derivatives” (ACS Omega, 2024)
